From patent US5250735A, “2-(N-substituted-aminoalkyl)-5-(E)-alkylidene cyclopentanones, 2-(N-substituted-aminoalkyl)-5-(E)-arylalkylidene cyclopentanones, and derivatives thereof” (priority 1992, dated 1993)
Where a name gives a salt, the structure may show the parent alone.

What was measured:
[1] = tested on: 60 human tumor cell lines; conditions: 5-fluorouracil comparison value; cited from earlier work
[2] = literature; cited from earlier work
[3] = literature; cited from earlier work; remark: listed apart in the source
[4] = tested on: acetic acid induced mouse writhes; test: Acetic acid induced mouse writhes (analgesic activity); format: in vivo, mice; conditions: oral
Experimental: Analgesic activity was evaluated by a procedure similar to that described by Koster et al. [R. Koster, et al., Fed. Proc., 18, 412 (1959)]. About one hour after oral administration of test compounds to mice, 0.1 ml/10 g body weight of acetic acid was intraperitoneally injected. About five minutes later, the number of writhes of each mouse was counted for a period of about 20 minutes. The analgesic effect was manifested as a reduction in the number of writhes. "Compound numbers" refer to compounds whose synthesis is illustrated in the corresponding Example number. The P values are the results of T-tests, which are well known to those skilled in the art.

[5] = tested on: 60 human tumor cell lines; test: National Cancer Institute in vitro tumor cell screen; format: cell-based; design: key to Differential Cellular Sensitivity GI50, tumor cell line subpanels / Differential Cellular Sensitivity LC50, tumor cell line subpanels / Differential Cellular Sensitivity TGI, tumor cell line subpanels: LEU: Leukemia/lymphoma; LNS: Nonsmall cell lung; COL: Colon; MEL: Melanoma; OVA: Ovary; REN: Kidney; SCL: Small cell lung; conditions: for GI50 / IC100 / LC50: Homo sapiens, molar concentration, mean of all cell lines; for GI50: 50% inhibition of cell proliferation, read-out: Mean response of all cell lines (Log) GI50 (converted); for IC100: 100% inhibition of cell proliferation, read-out: Mean response of all cell lines (Log) TGI (converted); for Differential Cellular Sensitivity GI50, tumor cell line subpanels: subpanels for GI50; for Differential Cellular Sensitivity LC50, tumor cell line subpanels: subpanels for LC50; for Differential Cellular Sensitivity TGI, tumor cell line subpanels: subpanels for TGI; for LC50: 50% of cell population killed, read-out: Mean response of all cell lines (Log) LC50 (converted)
Experimental: In the assay, a candidate compound was tested for its ability to inhibit tumor cell growth. A dose response curve of percent cell growth versus compound concentration over a concentration range of 10^-9 to 10^-4 molar of each test compound was established to determine GI50, TGI and LC50. GI50 and TGI denote that cell proliferation was inhibited by 50% and 100% respectively. LC50 denotes that 50% of cell population was killed. The selectivity of a compound towards a certain type of tumor cell line was evaluated from mean graphs which compared the relative drug concentrations required to produce the same level of response (e.g. GI50) in each cell line. A differential cellular sensitivity index was calculated by taking the difference between the logarithm of GI50 (or TGI, LC50) value for a cell line versus the arithmetic mean of the logarithm of GI50 (or TGI, LC 50) value for all cell line responses measured for a given compound.

[6] = tested on: Ehrlich ascites carcinoma; test: Antitumor effect on Ehrlich ascites carcinoma, survival; format: in vivo, ICR mice; conditions: 20 mg/kg/day intraperitoneal, 9 days
Experimental: Antitumor effect was measured on Ehrlich ascites carcinoma. Ehrlich ascites carcinoma cells were intraperitoneally administered to ICR mice. After 24 hours, 20 mg/kg/day of the compound whose synthesis is illustrated in Example 1 and Example 2 were each administered to the mice by intraperitoneal route for 9 days. The periods of survival of these animals were examined.

Acute toxicity = conditions: mouse, in vivo, 4 week old male mice
Experimental: (§1) The acute toxicity of one typical compound of this invention was measured by administering the compound to a group of 4 week old male mice.

male mice = test: Acute toxicity; conditions: mouse, in vivo
Experimental: as §1

[7] = tested on: carrageenin-induced rat paw edema; test: Carrageenin-induced rat paw edema (anti-inflammatory activity); format: in vivo, Wistar rats; conditions: paw volume at about 3 hours
Experimental: Anti-inflammatory activity was evaluated by examining the inhibitory activity of candidate compounds on carrageenin-induced rat paw edema according to a literature procedure [C. A. Winter, et al., Proc. Soc. Exp. Biol. Med. 111, 544 (1962)]. Test compounds were orally administered about 1 hour or subcutaneously injected about 0.5 hours before the injection of 100 microliters of a 1% suspension of carrageenin in saline into the subcutaneous tissues of the right hind paw of Wistar rats. The paw volumes were measured about 3 hours after carrageenin injection. The paw volumes were compared with that of a control group to give the percentage of inflammation inhibition. The results of these tests are shown in Table I. "Compound numbers" refer to compounds whose synthesis is illustrated in the corresponding Example number. The P values are the results of T-tests, which are well known to those skilled in the art.

[8] = 50.0 mg/kg sc, about 0.5 hours before carrageenin
[9] = 25.0 mg/kg sc, about 0.5 hours before carrageenin
[10] = 96.0 mg/kg po, about 1 hour before carrageenin

In the case of O=c1[nH]cc(F)c(=O)[nH]1 [5-fluorouracil], the “mean log LC50” value [1] is given as -3.5.

For C=C1C(=O)O[C@H]2C[C@@H](C)[C@@H]3C=CC(=O)[C@@]3(C)C[C@H]12 [Aromaticin], the “anti-inflammatory activity (in words)” value [2] is listed as “potent” and the “anticancer activity (in words)” value [3] is listed as “potent”.

In the case of CC(=O)Oc1ccccc1C(=O)O [Aspirin, reference compound], the “Inhibition of acetic acid induced mouse writhes” value ([4]; 100 mg/kg) is reported as 46.7% and the “Inhibition of acetic acid induced mouse writhes” value ([4]; 200 mg/kg) is reported as 64.0%.

In the case of CCCC/C=C1\CCC(CN(C)C)C1=O.Cl (centres unmarked) [Compound 1, 2-Dimethylaminomethyl-5-(E)-pentylidene cyclopentanone hydrochloride], the GI50 [5] is reported as 1.58 µM, the IC100 [5] is reported as 3.8 µM and the “Differential Cellular Sensitivity GI50, tumor cell line subpanels” value (“Differential Cellular Sensitivity GI50” for short) [5] is reported as “LEU;COL”. For the same molecule, the “Differential Cellular Sensitivity LC50, tumor cell line subpanels” value (“Differential Cellular Sensitivity LC50” for short) [5] was “COL;LNS;REN”, the “Differential Cellular Sensitivity TGI, tumor cell line subpanels” value (“Differential Cellular Sensitivity TGI” for short) [5] was “COL;REN” and the “average number of days of survival” value [6] was 41 ± 5.4 days. For the same molecule, the “increase of life span (ILS %) over the control” value [6] was 173.8%, the “ratio of survival for more than 40 days” value [6] was 9/11 and the LD50 (Acute toxicity; ip, intraperitoneal) was 107 mg/kg. The LD50 (Acute toxicity; iv, intraveneous) was 52 mg/kg, the LD50 (Acute toxicity; oral) was 486 mg/kg and the “acute toxicity (in words)” value (male mice) was “low acute toxicity”.

In the case of CCCCCCC/C=C1\CCC(CN(C)C)C1=O.Cl (centres unmarked) [Compound 2, 2-Dimethylaminomethyl-5-(E)-octylidene cyclopentanone hydrochloride], the GI50 [5] is reported as 5.13 µM, the IC100 [5] is reported as 12.3 µM and the “Differential Cellular Sensitivity GI50” value [5] is reported as “LEU;COL”. The “Differential Cellular Sensitivity LC50” value [5] was “COL;LNS;REN”, the “Differential Cellular Sensitivity TGI” value [5] was “COL;REN” and the “average number of days of survival” value [6] was 33 ± 8.2 days. For the same molecule, the “increase of life span (ILS %) over the control” value [6] was 112.0% and the “ratio of survival for more than 40 days” value [6] was 3/9.

For CC(C)=C1CCC(CN(C)C)C1=O.Cl (centres unmarked) [Compound 3, 2-Dimethylaminomethyl-5-(1-methylethylidene) cyclopentanone hydrochloride], the GI50 [5] was 19.1 µM, the LC50 [5] was 67.6 µM and the IC100 [5] was 40.7 µM. The “Differential Cellular Sensitivity GI50” value [5] was “LEU”, the “Differential Cellular Sensitivity LC50” value [5] was “SCL” and the “Differential Cellular Sensitivity TGI” value [5] was “COL;LEU”.

With CCOC(=O)COc1ccccc1/C=C1\CCC(CN(C)C)C1=O.Cl (centres unmarked) [Compound 4, 2-Dimethylaminomethyl-5-(E)-(2-ethoxycarbonylmethoxyl-benzylidene) cyclopentanone hydrochloride] the GI50 [5] was 6.31 µM, the IC100 [5] was 15.8 µM and the “Differential Cellular Sensitivity GI50” value [5] was “LEU”. For the same molecule, the “Differential Cellular Sensitivity LC50” value [5] was “CNS;LNS;MEL” and the “Differential Cellular Sensitivity TGI” value [5] was “LEU”.

Molecule CC(/C=C1\CCC(CN(C)C)C1=O)c1cccc(Br)c1.Cl (centres unmarked) [Compound 5, 2-Dimethylaminomethyl-5-(E)-[2-(3-bromophenyl)propylidene] cyclopentanone hydrochloride] has a GI50 [5] of 12.6 µM, an LC50 [5] of 63.1 µM and an IC100 [5] of 27.5 µM. The “Differential Cellular Sensitivity GI50” value [5] was “LEU”, the “Differential Cellular Sensitivity LC50” value [5] was “CNS;OVA” and the “Differential Cellular Sensitivity TGI” value [5] was “LEU”.

With CN(C)CC1CC/C(=C\c2ccccc2)C1=O.Cl (centres unmarked) [Compound 6, 2-Dimethylaminomethyl-5-(E)-benzylidene cyclopentanone hydrochloride] the “Inhibition of carrageenin induced rat paw edema” value [7, 8] was 77.4%.

In the case of COc1ccccc1/C=C1\CCC(CN(C)C)C1=O.Cl (centres unmarked) [Compound 7, 2-Dimethylaminomethyl-5-(E)-[(2-methoxy)benzylidene] cyclopentanone hydrochloride], the GI50 [5] is reported as 6.31 µM, the LC50 [5] is reported as 39.8 µM and the IC100 [5] is reported as 15.8 µM. The “Differential Cellular Sensitivity GI50” value [5] was “LEU”, the “Differential Cellular Sensitivity LC50” value [5] was “COL” and the “Differential Cellular Sensitivity TGI” value [5] was “COL”. For the same molecule, the “Inhibition of carrageenin induced rat paw edema” value ([7]; 12.5 mg/kg sc, about 0.5 hours before carrageenin) was 44.2%, the “Inhibition of carrageenin induced rat paw edema” value [7, 9] was 70.3% and the “Inhibition of carrageenin induced rat paw edema” value [7, 8] was 95.8%.

In the case of CN(C)CC1CC/C(=C\c2ccc(O)cc2)C1=O.Cl (centres unmarked) [Compound 8, 2-Dimethylaminomethyl-5-(E)-[(4-hydroxy)benzylidene] cyclopentanone hydrochloride], the GI50 [5] is reported as 4.27 µM, the IC100 [5] is reported as 10.7 µM and the “Differential Cellular Sensitivity GI50” value [5] is reported as “COL;LEU”. The “Differential Cellular Sensitivity LC50” value [5] was “CNS;REN;SCL”, the “Differential Cellular Sensitivity TGI” value [5] was “LEU” and the “Inhibition of carrageenin induced rat paw edema” value [7, 8] was 95.9%.

In the case of O=C1/C(=C/c2ccc(O)cc2)CCC1CNc1ccc(Cl)cc1 (centres unmarked) [Compound 9, 2-[(4-Chlorophenyl)aminomethyl]-5-(E)-[(4-hydroxy)benzylidene] cyclopentanone], the GI50 [5] is reported as 3.16 µM, the LC50 [5] is reported as 30.9 µM and the IC100 [5] is reported as 10 µM. The “Differential Cellular Sensitivity GI50” value [5] was “COL;LEU;SCL”, the “Differential Cellular Sensitivity LC50” value [5] was “COL” and the “Differential Cellular Sensitivity TGI” value [5] was “LEU;SCL”.

For COc1ccccc1/C=C1\CCC(CN2CCOCC2)C1=O.Cl (centres unmarked) [Compound 10, 2-Morpholinomethyl-5-(E)-[(2-methoxy)benzylidene]cyclopentanone hydrochloride], the GI50 [5] was 7.94 µM, the LC50 [5] was 52.5 µM and the IC100 [5] was 19.5 µM. The “Differential Cellular Sensitivity GI50” value [5] was “LEU;COL”, the “Differential Cellular Sensitivity LC50” value [5] was “MEL;REN;OVA” and the “Differential Cellular Sensitivity TGI” value [5] was “LEU”.

In the case of COc1ccccc1/C=C1\CCC(Cc2ccccc2)(CN(C)C)C1=O.Cl (centres unmarked) [Compound 11, 2-Benzyl-2-dimethylaminomethyl-5-(E)-[(2-methoxy)benzylidene] cyclopentanone hydrochloride], the GI50 [5] is reported as 2.19 µM, the LC50 [5] is reported as 83.2 µM and the IC100 [5] is reported as 25.1 µM. The “Differential Cellular Sensitivity GI50” value [5] was “LEU;COL”, the “Differential Cellular Sensitivity LC50” value [5] was “COL” and the “Differential Cellular Sensitivity TGI” value [5] was “LEU”. For the same molecule, the “Inhibition of carrageenin induced rat paw edema” value [7, 10] was 52.2% and the “Inhibition of acetic acid induced mouse writhes” value ([4]; 96 mg/kg) was 41.7%.

In the case of COc1ccc(/C=C2\CCC(Cc3ccccc3)(CN(C)C)C2=O)cc1.Cl (centres unmarked) [Compound 12, 2-Benzyl-2-dimethylaminomethyl-5-(E)-[(4-methoxy)benzylidene] cyclopentanone hydrochloride], the GI50 [5] is reported as 35.5 µM, the IC100 [5] is reported as 77.6 µM and the “Differential Cellular Sensitivity GI50” value [5] is reported as “COL;MEL”. The “Differential Cellular Sensitivity LC50” value [5] was “SCL”, the “Differential Cellular Sensitivity TGI” value [5] was “LEU;SCL” and the “Inhibition of carrageenin induced rat paw edema” value [7, 10] was 57.3%. The “Inhibition of acetic acid induced mouse writhes” value ([4]; 48 mg/kg) was 45.6% and the “Inhibition of acetic acid induced mouse writhes” value ([4]; 96 mg/kg) was 86.6%.

Work on CN(C)CCC1(C2=CCCC2)CC/C(=C\c2ccc(Cl)cc2)C1=O (centres unmarked) [Compound 13, 2-(1-Cyclopenten-1-yl)-2-dimethylaminoethyl-5-(E)-[(4-chloro)benzylidene]cyclopentanone hydrochloride] yielded a GI50 [5] of 7.08 µM, an LC50 [5] of 44.7 µM and an IC100 [5] of 19.1 µM. The “Differential Cellular Sensitivity GI50” value [5] was “MEL”, the “Differential Cellular Sensitivity LC50” value [5] was “MEL” and the “Differential Cellular Sensitivity TGI” value [5] was “MEL”.

In the case of C=C1C(=O)O[C@@H]2C[C@@H](C)[C@@H]3C=CC(=O)[C@@]3(C)[C@@H](O)[C@H]12 [Helenalin], the “anti-inflammatory activity (in words)” value [2] is given as “potent” and the “anticancer activity (in words)” value [3] is given as “potent”.

For CC(C)Cc1ccc(C(C)C(=O)O)cc1 (centres unmarked) [Ibuprofen, reference compound], the “Inhibition of carrageenin induced rat paw edema” value [7, 9] was 72.9% and the “Inhibition of carrageenin induced rat paw edema” value ([7]; 52.0 mg/kg po, about 1 hour before carrageenin) was 54.9%.

In the case of C[C@@H]1C[C@@H]2OC(=O)[C@]3(C)[C@H]2[C@@H](OC3(C)O)[C@]2(C)C(=O)C=C[C@@H]12 (some centres unmarked) [Tenulin], the “anti-inflammatory activity (in words)” value [2] is given as “potent” and the “anticancer activity (in words)” value [3] is given as “potent”.
